# Reference: the supplement of paper PMC11208160
# Assay: recombinant barcode read abundance after kanamycin selection (control-corrected) (log10(CPM+1)); higher = more efficient recombination; sequences stand for … in AGTGCAGAGAAAATCGGCCAGTTTTCTCTGCCTGCAGTCCGCATGCCGT…AGATTTATGCAGCGGACTGCCTTTCTCCCAAAGTGATAAACCGGACAGTATCATGGACCGGTTTTCCCGGTAATCCGTATTTGCAAGGTTGGTTTCACT; site = the 11-nt target
# Summary of the method: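 This pooled E. coli screen matched targets with IS621 bridge RNA target-binding loops. Plating was done in duplicate on chloramphenicol/ampicillin LB agar as a control and on chloramphenicol/ampicillin/kanamycin plus 0.1 mM IPTG. Recombination efficiency reflects barcode counts at recombinant junctions as counts per million, averaged and control-corrected. The figures are log10(CPM+1).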
# 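Note: IS621 recombinase and bridge RNA in Escherichia coli cells.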
row,Sequence,recombinant barcode read abundance (log10)
1,TACAGACCTTGGGTTCTAACCTGTTGCCT (site GACAGACCTAG),0.065
2,TACAGACCTTGGGTTCTAACCTGTTGCCT (site TACAGACCTAG),1.11
3,TACAGCTCTTGGGTTCTAACCTGTTGCTT (site TACAGCTCTAA),0.016
4,TACAGCTCTTGGGTTCTAACCTGTTGCTT (site TACCGCTCTAA),0.104
5,TACAGCTCTTGGGTTCTAACCTGTTGCTT (site TACGGCTCTAA),0.0374
6,TACAGCTCTTGGGTTCTAACCTGTTGCTT (site TACTGCTCTAA),0.107
7,TACATCCCTTGGGTTCTAACCTGTTGCCC (site TACATCCCTAG),0.41
8,TACATCCCTTGGGTTCTAACCTGTTGCCC (site TACATCCCTCG),0.111
9,TACATCCCTTGGGTTCTAACCTGTTGCCC (site TACATCCCTGG),0.646
10,TACATCCCTTGGGTTCTAACCTGTTGCCC (site TACATCCCTTG),0.0347
11,TACCATTCTTGGGTTCTAACCTGTTGCTT (site TACAGTTCTAA),0.0331
12,TACCATTCTTGGGTTCTAACCTGTTGCTT (site TACCATTCTAA),0.239
13,TACCCACCTTGGGTTCTAACCTGTTGCCT (site AACCCACCTAG),0.295
14,TACCCACCTTGGGTTCTAACCTGTTGCCT (site CACCCACCTAG),0.169
15,TACCCACCTTGGGTTCTAACCTGTTGCCT (site GACCCACCTAG),0.262
16,TACCCACCTTGGGTTCTAACCTGTTGCCT (site TACCCACCTAG),1.47
17,TACCCATCTTGGGTTCTAACCTGTTGCCT (site TAACCATCTAG),0.0921
18,TACCCATCTTGGGTTCTAACCTGTTGCCT (site TACCCATCTAG),0.862
19,TACCCATCTTGGGTTCTAACCTGTTGCCT (site TAGCCATCTAG),0.106
20,TACCCATCTTGGGTTCTAACCTGTTGCCT (site TATCCATCTAG),0.0366
21,TACCCGACTTGGGTTCTAACCTGTTGCCT (site TACCAGACTAG),0.0911
22,TACCCGACTTGGGTTCTAACCTGTTGCCT (site TACCCGACTAG),1.41

row,Sequence,recombinant barcode read abundance (log10)
1,TACCCGACTTGGGTTCTAACCTGTTGCCT (site TACCGGACTAG),0.178
2,TACCCGACTTGGGTTCTAACCTGTTGCCT (site TACCTGACTAG),0.00741
3,TACCCGCCTTGGGTTCTAACCTGTTGCCT (site TACCCGCCTAG),0.838
4,TACCCGCCTTGGGTTCTAACCTGTTGCCT (site TCCCCGGCTAG),0.206
5,TACCCTACTTGGGTTCTAACCTGTTGCAT (site TACACTACTAT),0.0106
6,TACCCTACTTGGGTTCTAACCTGTTGCAT (site TACCCTACTAT),0.654
7,TACCGCCCTTGGGTTCTAACCTGTTGCGT (site GGAAAGACTGT),0.166
8,TACCGCCCTTGGGTTCTAACCTGTTGCGT (site TACCGCCCTAC),1.95
9,TACCGGACTTGGGTTCTAACCTGTTGCGT (site TACCGGACTAC),2.13
10,TACCGGACTTGGGTTCTAACCTGTTGCGT (site TACCGGCCTAA),0.0831
11,TACCGTTCTTGGGTTCTAACCTGTTGCCT (site TAACGTTCTAG),0
12,TACCGTTCTTGGGTTCTAACCTGTTGCCT (site TACCGTTCTAG),0.41
13,TACGAATCTTGGGTTCTAACCTGTTGCCG (site TACGAATCTAG),0.235
14,TACGAATCTTGGGTTCTAACCTGTTGCCG (site TACGAATCTCG),0.465
15,TACGAGGCTTGGGTTCTAACCTGTTGCCT (site TACGAGGCTAG),0.406
16,TACGAGGCTTGGGTTCTAACCTGTTGCCT (site TACGCGGCTAG),0.0314
17,TACGAGGCTTGGGTTCTAACCTGTTGCCT (site TACGGGGCTAG),0.0616
18,TACGAGGCTTGGGTTCTAACCTGTTGCCT (site TACGTGGCTAG),0.0666
19,TACGCTCCTTGGGTTCTAACCTGTTGCAT (site TACGCTCCTAA),0.053
20,TACGCTCCTTGGGTTCTAACCTGTTGCAT (site TACGCTCCTAC),0.0178
21,TACGCTCCTTGGGTTCTAACCTGTTGCAT (site TACGCTCCTAG),0.284
22,TACGCTCCTTGGGTTCTAACCTGTTGCAT (site TACGCTCCTAT),0.785

row,Sequence,recombinant barcode read abundance (log10)
1,TACGCTCCTTGGGTTCTAACCTGTTGCTT (site TACGCTCCTAA),0.243
2,TACGCTCCTTGGGTTCTAACCTGTTGCTT (site TACGCTCCTAC),0.176
3,TACGCTCCTTGGGTTCTAACCTGTTGCTT (site TACGCTCCTAG),0.0812
4,TACGCTCCTTGGGTTCTAACCTGTTGCTT (site TACGCTCCTAT),0.017
5,TACTATACTTGGGTTCTAACCTGTTGCCT (site TACTATACTAG),0.181
6,TACTATACTTGGGTTCTAACCTGTTGCCT (site TACTATCCTAG),0.131
7,TACTATACTTGGGTTCTAACCTGTTGCCT (site TACTATGCTAG),0.0468
8,TACTATACTTGGGTTCTAACCTGTTGCCT (site TACTATTCTAG),0.149
9,TACTATCCTTGGGTTCTAACCTGTTGCCT (site TACTATACTAG),0.0496
10,TACTATCCTTGGGTTCTAACCTGTTGCCT (site TACTATCCTAG),0.441
11,TACTATCCTTGGGTTCTAACCTGTTGCCT (site TACTATGCTAG),0
12,TACTATCCTTGGGTTCTAACCTGTTGCCT (site TACTATTCTAG),0.162
13,TACTATGCTTGGGTTCTAACCTGTTGCCT (site TACTATACTAG),0.211
14,TACTATGCTTGGGTTCTAACCTGTTGCCT (site TACTATCCTAG),0.163
15,TACTATGCTTGGGTTCTAACCTGTTGCCT (site TACTATGCTAG),1.19
16,TACTATGCTTGGGTTCTAACCTGTTGCCT (site TACTATTCTAG),0.187
17,TACTCCGCTTGGGTTCTAACCTGTTGCCT (site GACTCCGCTAG),0.031
18,TACTCCGCTTGGGTTCTAACCTGTTGCCT (site TACTCCGCTAG),1.02
19,TACTGAGCTTGGGTTCTAACCTGTTGCCT (site CACTGAGCTAG),0.0308
20,TACTGAGCTTGGGTTCTAACCTGTTGCCT (site TACTGAGCTAG),0.52
21,TAGAACTCTTGGGTTCTAACCTGTTGCCT (site TAGAACTCTAG),0.914
22,TAGAACTCTTGGGTTCTAACCTGTTGCCT (site TAGAACTCTCG),0.0641
